Source: the supplement of paper PMC11208160

Experiment: recombinant barcode read abundance after kanamycin selection (control-corrected) (log10(CPM+1)); higher = more efficient recombination; sequences stand for … in AGTGCAGAGAAAATCGGCCAGTTTTCTCTGCCTGCAGTCCGCATGCCGT…ATTTATGCAGCGGACTGCCTTTCTCCCAAAGTGATAAACCGGACAGTATCATGGACCGGTTTTCCCGGTAATCCGTATTTGCAAGGTTGGTTTCACT; site = the 11-nt target
Procedure, shortened: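 Reported as log10(CPM+1), each value stands for recombination efficiency. That efficiency is the averaged, control-corrected counts per million of barcodes found at recombinant junctions. Cells from a pooled E. coli library pairing targets with IS621 bridge RNA target-binding loops were plated twice on chloramphenicol/ampicillin LB agar (control) and twice on chloramphenicol/ampicillin/kanamycin with 0.1 mM IPTG.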

Sequence | recombinant barcode read abundance (log10)
TCTACCCACTGGGTTCTAACCTGTTGCTGAG [TCTACCCCTCA_LTGcore_AC_RTGcore_CT] (site TCTACCCCTCA) (LTG core: AC, RTG core: CT) | 0.0555
TCTACCCAGTGGGTTCTAACCTGTTGCTGAG [TCTACCCCTCA_LTGcore_AG_RTGcore_CT] (site TCTACCCCTCA) (LTG core: AG, RTG core: CT) | 0.467
TCTACCCCATGGGTTCTAACCTGTTGCTGAG [TCTACCCCTCA_LTGcore_CA_RTGcore_CT] (site TCTACCCCTCA) (LTG core: CA, RTG core: CT) | 0.806
TCTACCCCTTGGGTTCTAACCTGTTGCTGCC [TCTACCCCTCA_LTGcore_CT_RTGcore_GG] (site TCTACCCCTCA) (LTG core: CT, RTG core: GG) | 0.0951
TCTACCCGATGGGTTCTAACCTGTTGCTGAG [TCTACCCCTCA_LTGcore_GA_RTGcore_CT] (site TCTACCCCTCA) (LTG core: GA, RTG core: CT) | 0.208
TCTACCCGGTGGGTTCTAACCTGTTGCTGCC [TCTACCCCTCA_LTGcore_GG_RTGcore_GG] (site TCTACCCCTCA) (LTG core: GG, RTG core: GG) | 0.108
TCTACCCTCTGGGTTCTAACCTGTTGCTGAG [TCTACCCCTCA_LTGcore_TC_RTGcore_CT] (site TCTACCCCTCA) (LTG core: TC, RTG core: CT) | 0.0968
TCTACCCTCTGGGTTCTAACCTGTTGCTGGA [TCTACCCCTCA_LTGcore_TC_RTGcore_TC] (site TCTACCCCTCA) (LTG core: TC, RTG core: TC) | 0.032
TGATACCACTGGGTTCTAACCTGTTGCGTGT [TGATACCCTAC_LTGcore_AC_RTGcore_AC] (site TGATACCCTAC) (LTG core: AC, RTG core: AC) | 0.136
TGATACCCATGGGTTCTAACCTGTTGCGTAG [TGATACCCTAC_LTGcore_CA_RTGcore_CT] (site TGATACCCTAC) (LTG core: CA, RTG core: CT) | 0.328
TGATACCCCTGGGTTCTAACCTGTTGCGTAG [TGATACCCTAC_LTGcore_CC_RTGcore_CT] (site TGATACCCTAC) (LTG core: CC, RTG core: CT) | 0.566
TGATACCCTTGGGTTCTAACCTGTTGCGTAA [TGATACCCTAC_LTGcore_CT_RTGcore_TT] (site TGATACCCTAC) (LTG core: CT, RTG core: TT) | 0.882
TGATACCCTTGGGTTCTAACCTGTTGCGTAT [TGATACCCTAC_LTGcore_CT_RTGcore_AT] (site TGATACCCTAC) (LTG core: CT, RTG core: AT) | 0.624
TGATACCTATGGGTTCTAACCTGTTGCGTAG [TGATACCCTAC_LTGcore_TA_RTGcore_CT] (site TGATACCCTAC) (LTG core: TA, RTG core: CT) | 0.0864
TGATACCTATGGGTTCTAACCTGTTGCGTTA [TGATACCCTAC_LTGcore_TA_RTGcore_TA] (site TGATACCCTAC) (LTG core: TA, RTG core: TA) | 0.0463
TGATACCTCTGGGTTCTAACCTGTTGCGTGA [TGATACCCTAC_LTGcore_TC_RTGcore_TC] (site TGATACCCTAC) (LTG core: TC, RTG core: TC) | 0.0566
TGATACCTTTGGGTTCTAACCTGTTGCGTAA [TGATACCCTAC_LTGcore_TT_RTGcore_TT] (site TGATACCCTAC) (LTG core: TT, RTG core: TT) | 0.0482
TGTATTCAATGGGTTCTAACCTGTTGCCTAG [TGTATTCCTAG_LTGcore_AA_RTGcore_CT] (site TGTATTCCTAG) (LTG core: AA, RTG core: CT) | 0.0633
TGTATTCAATGGGTTCTAACCTGTTGCCTTT [TGTATTCCTAG_LTGcore_AA_RTGcore_AA] (site TGTATTCCTAG) (LTG core: AA, RTG core: AA) | 0.0627
